Read-outs that look alike come from different tables or passages of the source.
Key:
[1] = system: kinesin; conditions: original target; read-out: IC50 Original Target(s): kinesin; cited from earlier work
[2] = system: thymidylate synthase; conditions: original target; read-out: IC50 Original Target(s): TS; cited from earlier work
[3] = Dynamic light scattering (DLS); format: physicochemical
[4] = system: model enzymes (β-lactamase, chymotrypsin, DHFR, β-galactosidase); format: biochemical
[5] = format: physicochemical; conditions: 625 μM in 20 mM Tris, pH 7.2
[6] = target: T1, AmpC β-lactamase (Escherichia coli, UniProt P00811); conditions: for ↑ IC50 vs. 10x Enzyme: β-lactamase 10 nM vs 1 nM; for ↑ IC50 vs. 10x β-lactamase: 10-fold increase in β-lactamase
T1 sequence (P00811 20-377 limits assumed): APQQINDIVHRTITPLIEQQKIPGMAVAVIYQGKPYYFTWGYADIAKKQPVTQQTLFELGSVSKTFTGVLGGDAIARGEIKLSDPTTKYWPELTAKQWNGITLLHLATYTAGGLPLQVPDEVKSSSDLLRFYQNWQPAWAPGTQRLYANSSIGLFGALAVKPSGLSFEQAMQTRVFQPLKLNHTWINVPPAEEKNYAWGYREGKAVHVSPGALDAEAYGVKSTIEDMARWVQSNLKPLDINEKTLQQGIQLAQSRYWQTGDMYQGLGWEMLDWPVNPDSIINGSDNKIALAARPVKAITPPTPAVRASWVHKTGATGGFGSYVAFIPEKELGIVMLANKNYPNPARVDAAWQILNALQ

[7] = target: T1, AmpC β-lactamase; experiment: biochemical
[8] = target: chymotrypsin (Bos taurus, UniProt P00766); experiment: chymotrypsin inhibition enzyme assay; format: biochemical
[9] = system: prion; conditions: original target; read-out: IC50 Original Target(s): prion; cited from earlier work
[10] = target: triosephosphate isomerase (Plasmodium falciparum, UniProt Q07412); conditions: read-out: IC50 Original Target(s): TIM; cited from earlier work
triosephosphate isomerase, sequence (Q07412 whole entry): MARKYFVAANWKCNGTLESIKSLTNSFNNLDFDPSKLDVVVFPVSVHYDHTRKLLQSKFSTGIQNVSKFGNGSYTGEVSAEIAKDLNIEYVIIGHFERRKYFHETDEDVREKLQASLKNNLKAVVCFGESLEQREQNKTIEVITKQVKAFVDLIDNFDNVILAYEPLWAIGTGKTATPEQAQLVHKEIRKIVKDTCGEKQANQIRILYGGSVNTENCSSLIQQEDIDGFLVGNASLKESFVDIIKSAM

[11] = target: β-galactosidase (Escherichia coli, UniProt P00722); experiment: biochemical; conditions: for ↑ IC50 in the presence of BSA, against β-galactosidase: 0.1 mg/mL BSA
β-galactosidase, sequence (P00722 2-1024 limits assumed): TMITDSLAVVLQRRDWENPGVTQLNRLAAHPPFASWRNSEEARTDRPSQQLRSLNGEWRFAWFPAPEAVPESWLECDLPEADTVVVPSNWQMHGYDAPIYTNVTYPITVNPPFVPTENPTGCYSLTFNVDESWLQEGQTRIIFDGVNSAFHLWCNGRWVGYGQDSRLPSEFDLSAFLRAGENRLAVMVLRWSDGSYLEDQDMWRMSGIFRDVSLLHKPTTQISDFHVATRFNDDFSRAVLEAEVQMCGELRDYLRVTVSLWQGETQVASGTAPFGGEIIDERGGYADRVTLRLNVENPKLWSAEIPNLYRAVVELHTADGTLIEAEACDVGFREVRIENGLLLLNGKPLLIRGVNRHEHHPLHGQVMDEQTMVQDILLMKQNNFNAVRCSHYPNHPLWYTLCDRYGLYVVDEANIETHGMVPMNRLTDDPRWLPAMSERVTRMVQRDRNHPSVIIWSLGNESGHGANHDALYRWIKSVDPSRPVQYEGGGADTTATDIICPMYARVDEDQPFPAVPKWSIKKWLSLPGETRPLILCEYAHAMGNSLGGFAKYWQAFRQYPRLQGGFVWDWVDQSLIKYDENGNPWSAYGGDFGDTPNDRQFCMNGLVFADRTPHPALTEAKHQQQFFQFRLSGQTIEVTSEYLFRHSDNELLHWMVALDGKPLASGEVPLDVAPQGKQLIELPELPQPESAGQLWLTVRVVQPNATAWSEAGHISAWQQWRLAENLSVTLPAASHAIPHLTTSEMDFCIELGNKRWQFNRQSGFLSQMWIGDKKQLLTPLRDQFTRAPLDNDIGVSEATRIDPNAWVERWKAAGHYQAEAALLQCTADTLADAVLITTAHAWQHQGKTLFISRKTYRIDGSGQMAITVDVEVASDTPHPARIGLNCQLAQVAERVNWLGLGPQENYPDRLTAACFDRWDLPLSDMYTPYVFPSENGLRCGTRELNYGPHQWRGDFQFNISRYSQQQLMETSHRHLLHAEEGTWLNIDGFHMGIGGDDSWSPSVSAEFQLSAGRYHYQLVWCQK

[12] = target: insulin receptor (Homo sapiens, UniProt P06213); conditions: original target; footnote b: Kd; read-out: Kd Original Target(s): insulin receptor; cited from earlier work
insulin receptor, sequence (P06213 28-1382, species assumed): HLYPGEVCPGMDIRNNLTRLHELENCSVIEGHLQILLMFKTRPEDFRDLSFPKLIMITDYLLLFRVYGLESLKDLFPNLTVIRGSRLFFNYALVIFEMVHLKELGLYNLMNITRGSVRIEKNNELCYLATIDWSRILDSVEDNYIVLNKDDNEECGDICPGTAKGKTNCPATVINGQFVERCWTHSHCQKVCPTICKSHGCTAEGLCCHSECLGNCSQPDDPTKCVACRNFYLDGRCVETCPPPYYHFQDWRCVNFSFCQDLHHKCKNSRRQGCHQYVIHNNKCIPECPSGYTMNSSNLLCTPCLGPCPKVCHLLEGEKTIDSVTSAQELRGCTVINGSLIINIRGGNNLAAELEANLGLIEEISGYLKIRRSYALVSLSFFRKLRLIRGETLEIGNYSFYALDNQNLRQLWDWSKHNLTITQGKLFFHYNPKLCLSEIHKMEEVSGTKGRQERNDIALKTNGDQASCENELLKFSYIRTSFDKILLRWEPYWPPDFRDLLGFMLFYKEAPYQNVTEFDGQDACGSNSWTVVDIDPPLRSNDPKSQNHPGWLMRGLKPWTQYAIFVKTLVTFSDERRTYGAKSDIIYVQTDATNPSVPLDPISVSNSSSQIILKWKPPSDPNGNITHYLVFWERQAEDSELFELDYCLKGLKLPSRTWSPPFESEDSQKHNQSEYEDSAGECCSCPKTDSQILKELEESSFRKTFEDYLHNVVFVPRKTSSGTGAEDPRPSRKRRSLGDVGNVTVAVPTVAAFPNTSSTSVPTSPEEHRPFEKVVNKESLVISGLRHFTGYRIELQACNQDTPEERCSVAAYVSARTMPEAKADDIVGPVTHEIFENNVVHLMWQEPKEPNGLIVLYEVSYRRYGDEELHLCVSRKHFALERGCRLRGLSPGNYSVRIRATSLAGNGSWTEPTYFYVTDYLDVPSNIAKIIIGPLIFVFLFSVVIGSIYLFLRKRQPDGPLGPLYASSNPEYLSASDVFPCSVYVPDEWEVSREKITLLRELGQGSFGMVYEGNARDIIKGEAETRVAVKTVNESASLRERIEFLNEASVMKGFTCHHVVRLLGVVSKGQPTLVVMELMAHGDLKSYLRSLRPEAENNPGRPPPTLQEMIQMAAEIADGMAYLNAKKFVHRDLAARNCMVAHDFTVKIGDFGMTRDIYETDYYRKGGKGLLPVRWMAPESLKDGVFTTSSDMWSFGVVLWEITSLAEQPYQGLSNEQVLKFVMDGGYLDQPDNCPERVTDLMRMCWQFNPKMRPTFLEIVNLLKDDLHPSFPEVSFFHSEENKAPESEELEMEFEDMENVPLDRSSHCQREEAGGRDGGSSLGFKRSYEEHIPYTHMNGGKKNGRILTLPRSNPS

[13] = target: integrase; conditions: original target; read-out: IC50 Original Target(s): integrase; cited from earlier work
[14] = target: phosphoinositide 3-kinase; conditions: original target; read-out: IC50 Original Target(s): PI3K; cited from earlier work
[15] = system: endothelial nitric oxide synthase; conditions: original target; read-out: IC50 Original Target(s): eNOS; cited from earlier work
[16] = system: neuronal nitric oxide synthase; conditions: original target; read-out: IC50 Original Target(s): nNOS; cited from earlier work
[17] = system: HIV Tar RNA; conditions: original target; read-out: IC50 Original Target(s): HIV Tar RNA; cited from earlier work
[18] = Table 4, 50 mM KPi, at the concentration under DLS conc.
[19] = Table 2, 5 min preincubation of inhibitor and enzyme vs none
[20] = Table 6, incubation with β-lactamase, 5 min
[21] = Table 6, read-out: IC50 vs. chymo.

## O=C1C(I)=CC(=C(c2cc(I)c(O)c(I)c2)c2ccccc2C(=O)O)C=C1I [tetraiodophenolphthalein]
[1]
  IC50: 30 µM
[2]
  IC50: 3 µM
[3]; 50 mM KPi
  particle formation in solution by DLS (autocorrelation function): presence of particles
[3]; DLS in 5 mM KPi
  Diameter, 5 mM KPi: 86.2 ± 10.5 nm
[3]; DLS in 500 mM KPi
  Diameter, 500 mM KPi: 320.4 ± 38.8 nm
[3]; [18]
  DLS Diameter: 153.4 ± 26.0 nm
  DLS Intensity: 42.2 ± 3.9 kcps
[3]; same conditions as TEM
  DLS mean diameter in the TEM conditions: 83.2 ± 6.5 nm

## O=S(=O)(O)c1cccc2cccc(Nc3ccccc3)c12 [ANS, 8-anili-no-1-naphthalene-sulfonic acid]
[4]
  inhibition of the model enzymes: does not inhibit the model enzymes
[3]
  DLS Diameter: No particles
  DLS Intensity: 0.5 ± 0.1 kcps
  Diameter, 5 mM KPi: No particles
  Diameter, 50 mM KPi: No particles
  Diameter, 500 mM KPi: No particles
[5]
  particles observed by TEM: Particles were not observed

## OB(O)c1cc2ccccc2s1 [Benzo[b]thiophene-2-boronic acid]
[6]; [19]
  ↓ IC50 with Incubation: No change
[6]; Table 2
  ↑ IC50 vs. 10x Enzyme: No change
[3]; 50 mM KPi
  particle formation in solution by DLS (autocorrelation function): not observed to form particles
[3]; DLS in 5 mM KPi
  Diameter, 5 mM KPi: No particles
[3]; DLS in 50 mM KPi
  Diameter, 50 mM KPi: No particles
[3]; DLS in 500 mM KPi
  Diameter, 500 mM KPi: No particles
[3]; [18]
  DLS Diameter: No particles
  DLS Intensity: 0.9 ± 0.2 kcps

## O=C1O/C(=C\Nc2ccc(Oc3ccccc3)cc2)c2ccccc21 [drawing 41]
[3]; [18]
  DLS Diameter: 94.7 ± 4.2 nm
  DLS Intensity: 16.2 ± 1.1 kcps

## CC(C)(C)c1ccc(-c2cc(C(=O)O)cc(-c3ccc(Cl)c(O)c3)n2)cc1
[6]; Table 6
  ↑ IC50 vs. 10x β-lactamase: 12-fold
[6]; [20]
  ↓ IC50 with Incubation: >50-fold
[7]
  IC50: 4 µM
[8]; [21]
  IC50: 13 µM

## O=S(=O)(O)Cc1cc2cc(S(=O)(=O)O)c(/N=N/c3ccc(Br)cc3S(=O)(=O)O)c(O)c2c(O)c1/N=N/c1ccc(Br)cc1S(=O)(=O)O
[6]; Table 6
  ↑ IC50 vs. 10x β-lactamase: >50-fold
[6]; [20]
  ↓ IC50 with Incubation: 2-fold
[7]
  IC50: 80 µM

## O=C1C2C(C(=O)N1Nc1ccc([N+](=O)[O-])cc1[N+](=O)[O-])[C@@]1(Cl)C(Cl)=C(Cl)[C@]2(Cl)C1(Cl)Cl (stereo partly drawn)
[3]; DLS in 5 mM KPi
  Diameter, 5 mM KPi: 143.5 ± 7.9 nm
[3]; [18]
  DLS Diameter: 418.6 ± 38.8 nm
  DLS Intensity: 24.9 ± 3.1 kcps

## Nc1c(/N=N/c2ccc(-c3ccc(/N=N/c4cc(S(=O)(=O)O)c5ccccc5c4N)cc3)cc2)cc(S(=O)(=O)O)c2ccccc12 [Congo Red]
[9]
  IC50: 1 µM
[4]
  inhibition of the model enzymes: inhibit the model enzymes
[3]
  DLS Diameter: 202.6 ± 22.5 nm
  DLS Intensity: 131.1 ± 64.3 kcps
  particle formation in solution by DLS (autocorrelation function): did form particles detectable by DLS
[10]
  IC50: 30.4 µM

## Oc1ccc(/N=N/c2ccc(Br)cc2)cc1 [drawing 33]
[11]
  ↑ IC50 in the presence of BSA, against β-galactosidase: 8 fold

## CC(C)c1ccc(/C=C2/C(=O)Nc3ccccc32)cc1 [3-(4-isopropylbenzylidene)indolin-2-one]
[3]; DLS in 5 mM KPi
  Diameter, 5 mM KPi: 247.1 ± 12.8 nm
[3]; DLS in 500 mM KPi
  Diameter, 500 mM KPi: 494.3 ± 48.1 nm
[3]; [18]
  DLS Diameter: 379.0 ± 14.1 nm
  DLS Intensity: 43.8 ± 5.7 kcps

## O=C1OC2(c3cc(I)c(O)c(I)c3Oc3c2cc(I)c(O)c3I)c2c(Cl)c(Cl)c(Cl)c(Cl)c21 [Rose Bengal lactone]
[12]
  Kd: 20 µM

## O=c1c(O)c(-c2ccc(O)c(O)c2)oc2cc(O)cc(O)c12 [quercetin]
[11]; Table 1, 37° C.
  IC50: 220 µM
[13]
  IC50: 11 µM
[14]
  IC50: 3.8 µM

## O=C(N/N=C/c1ccccc1O)C(=O)N/N=C/c1ccccc1O
[3]; DLS in 5 mM KPi
  Diameter, 5 mM KPi: 389.3 ± 55.4 nm
[3]; DLS in 500 mM KPi
  Diameter, 500 mM KPi: 426.6 ± 23.8 nm
[3]; [18]
  DLS Diameter: 394.6 ± 12.5 nm
  DLS Intensity: 26.4 ± 5.1 kcps

## CCCC[n+]1ccc(-c2cc(C(=O)O)cc(-c3ccc(Cl)cc3)n2)cc1
[6]; Table 6
  ↑ IC50 vs. 10x β-lactamase: 20-fold
[6]; [20]
  ↓ IC50 with Incubation: 24-fold
[7]
  IC50: 8 µM

## O=C1Nc2cccc(O)c2C1Cc1ccc2c(c1)CCCC2 (stereo not drawn)
[6]; Table 6
  ↑ IC50 vs. 10x β-lactamase: 6-fold
[6]; [20]
  ↓ IC50 with Incubation: 3-fold
[7]
  IC50: 15 µM
[8]; [21]
  IC50: 40 µM

## O=C1O/C(=C\Nc2ccc(Oc3ccccc3)cc2)c2ccccc21 [drawing 3]
[7]
  IC50: 5 µM

## O=C1O/C(=C\Nc2ccc(Oc3ccccc3)cc2)c2ccccc21 [drawing 34]
[11]
  ↑ IC50 in the presence of BSA, against β-galactosidase: 9 fold

## tris (dicarboxymethylene) fullerene-C3
[15]
  IC50: 17 µM
[6]; [19]
  ↓ IC50 with Incubation: 2-fold
[6]; Table 2
  ↑ IC50 vs. 10x Enzyme: >50-fold
[6]; read-out: IC50 β-lactamase, Table 1, 50 mM KPi pH 7.0, 5 min incubation, 1 nM enzyme
  IC50: 7 µM
[8]; Table 1, read-out: IC50 Chymotrypsin
  IC50: 60 µM
[16]
  IC50: 24 µM

## O=C(O)c1cc(-c2ccc(Cl)cc2)nc(-c2ccc(Nc3ccc(Cl)cc3)cc2)c1
[6]; Table 6
  ↑ IC50 vs. 10x β-lactamase: 4-fold
[6]; [20]
  ↓ IC50 with Incubation: 12-fold
[7]
  IC50: 2 µM
[8]; [21]
  IC50: 2 µM

## Oc1ccc(/N=N/c2ccc(Br)cc2)cc1 [drawing 40]
[3]; DLS in 5 mM KPi
  Diameter, 5 mM KPi: 140.2 ± 12.1 nm
[3]; DLS in 500 mM KPi
  Diameter, 500 mM KPi: 267.4 ± 24.5 nm
[3]; [18]
  DLS Diameter: 176.2 ± 7.9 nm
  DLS Intensity: 12.6 ± 3.9 kcps

## O=S(=O)(O)c1cc(O)c(/N=N/c2ccc3ccccc3c2O)c2ccccc12
[17]
  IC50: 50 µM

— patent publication US6887658B2, “Methods of identifying non-specific inhibitors of biomolecules” (Northwestern University, priority 2001, dated 2005)
